From PubChem BioAssay AID248 (DTP/NCI, 2004)
Toxic doses and inconclusive results are not listed. Rule as the data show it: active = T/C of 150% or more; inactive = T/C below 125%.

System: L1210 leukemia ip in BDF1 mice, survival T/C
Test: NCI In Vivo Anticancer Drug Screen. Data for tumor model L1210 Leukemia (intraperitoneal) in B6D2F1 (BDF1) mice
Conditions: endpoint: mean survival time, higher = longer survival
Outline: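 Mice bearing the transplanted tumor received compound or vehicle. Survival of the treated group was divided by that of the vehicle-treated control group to give the ratio.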

[1] = dose: 50.0 mg/kg/injection, schedule: Q01DX009 (ip), vehicle: saline with Tween-80
[2] = dose: 100.0 mg/kg/injection, schedule: Q01DX009 (ip), vehicle: saline with Tween-80
[3] = dose: 200.0 mg/kg/injection, schedule: Q01DX009 (ip), vehicle: saline with Tween-80
[4] = dose: 400.0 mg/kg/injection, schedule: Q01DX009 (ip), vehicle: saline with Tween-80
[5] = dose: 100.0 mg/kg/injection, schedule: Q04DX003 (ip), vehicle: Klucel (hydroxypropylcellulose) (HPC)
[6] = dose: 200.0 mg/kg/injection, schedule: Q04DX003 (ip), vehicle: Klucel (hydroxypropylcellulose) (HPC)
[7] = dose: 400.0 mg/kg/injection, schedule: Q04DX003 (ip), vehicle: Klucel (hydroxypropylcellulose) (HPC)
[8] = dose: 100.0 mg/kg/injection, schedule: Q04DX002 (ip), vehicle: Klucel (hydroxypropylcellulose) (HPC)
[9] = dose: 100.0 mg/kg/injection, schedule: Q04DX003 (ip), vehicle: saline with Tween-80
[10] = dose: 200.0 mg/kg/injection, schedule: Q04DX003 (ip), vehicle: saline with Tween-80
[11] = dose: 400.0 mg/kg/injection, schedule: Q04DX003 (ip), vehicle: saline with Tween-80
[12] = dose: 100.0 mg/kg/injection, schedule: Q01DX001 (ip), vehicle: saline with Tween-80
[13] = dose: 100.0 mg/kg/injection, schedule: Q01DX009 (ip), vehicle: Klucel (hydroxypropylcellulose) (HPC)
[14] = dose: 200.0 mg/kg/injection, schedule: Q01DX009 (ip), vehicle: Klucel (hydroxypropylcellulose) (HPC)
[15] = dose: 100.0 mg/kg/injection, schedule: Q01DX001 (ip), vehicle: carboxymethylcellulose (CMC)
[16] = dose: 200.0 mg/kg/injection, schedule: Q01DX001 (ip), vehicle: carboxymethylcellulose (CMC)
[17] = dose: 400.0 mg/kg/injection, schedule: Q01DX001 (ip), vehicle: carboxymethylcellulose (CMC)
[18] = dose: 100.0 mg/kg/injection, schedule: Q01DX Z (ip), vehicle: methylcellulose (MC)
[19] = dose: 200.0 mg/kg/injection, schedule: Q01DX Z (ip), vehicle: methylcellulose (MC)

Measured: T/C

CC1=C/C(=N\N2CCCCCC2)C(C(O)(C(F)(F)F)C(F)(F)F)C(C)(C)C1 (stereo not given)
inactive: [1] 90 % of control | [2] 96 % of control | [3] 86 % of control | [4] 88 % of control

Cc1ccc(C)c(C(C)NC(=O)NCCCl)c1 (stereo not given)
inactive: [5] 91 % of control | [6] 88 % of control | [7] 96 % of control

O=C(O)C(Nc1ccc(Oc2ccc(NC(C(=O)O)c3ccccc3)cc2)cc1)c1ccccc1 (stereo not given)
inactive: [8] 100 % of control | dose: 200.0 mg/kg/injection, schedule: Q04DX002 (ip), vehicle: Klucel (hydroxypropylcellulose) (HPC) 100 % of control | dose: 400.0 mg/kg/injection, schedule: Q04DX002 (ip), vehicle: Klucel (hydroxypropylcellulose) (HPC) 100 % of control

O=[N+]([O-])c1ccc(C=Nc2ccccc2-c2ccccc2)s1
inactive: [5] 98 % of control | [6] 98 % of control | [7] 95 % of control

COC(=O)C1=CC(C(=O)OC)C(C(=O)OC)N2C=CSC2(C)C1 (stereo not given)
inactive: [9] 96 % of control | [10] 96 % of control | [11] 93 % of control

ClC12C3CCCC1CCCC2CCC3 (stereo not given)
inactive: dose: 100.0 mg/kg/injection, schedule: Q04DX003 (ip), vehicle: other 117 % of control | dose: 200.0 mg/kg/injection, schedule: Q04DX003 (ip), vehicle: other 104 % of control | dose: 400.0 mg/kg/injection, schedule: Q04DX003 (ip), vehicle: other 104 % of control

CCCCC(C=O)(C=C=C(C)C)CC (stereo not given)
inactive: [2] 89 % of control | [9] 92 % of control | [3] 91 % of control | [10] 93 % of control | [4] 89 % of control | [11] 98 % of control

CCOC(=O)C(CC)c1nc2ccccc2o1 (stereo not given)
inactive: [1] 109 % of control | [2] 100 % of control | [3] 95 % of control | [4] 94 % of control

C[Se]c1nc2c(=O)[nH]c(N)nc2n1C1OC(CO)C(O)C1O (stereo not given)
inactive: dose: 100.0 mg/kg/injection, schedule: Q01DX005 (ip), vehicle: saline 107 % of control | dose: 200.0 mg/kg/injection, schedule: Q01DX005 (ip), vehicle: saline 102 % of control

CN(C)C(=Nc1ccccc1)N(C)N
inactive: dose: 37.5 mg/kg/injection, schedule: Q04DX003 (ip), vehicle: saline 102 % of control | dose: 75.0 mg/kg/injection, schedule: Q04DX003 (ip), vehicle: saline 101 % of control | dose: 150.0 mg/kg/injection, schedule: Q04DX003 (ip), vehicle: saline 102 % of control

CC(Cl)C(=O)NC(C)C(=O)O (stereo not given)
inactive: dose: 12.5 mg/kg/injection, schedule: Q04DX002 (ip), vehicle: saline 97 % of control | dose: 25.0 mg/kg/injection, schedule: Q04DX002 (ip), vehicle: saline 111 % of control | dose: 50.0 mg/kg/injection, schedule: Q04DX002 (ip), vehicle: saline 97 % of control

O=[N+]([O-])c1cnc(C2=C(O)c3ccccc3CC2)s1
inactive: [12] 97 % of control

CC1(C)CC(=O)CC(C)(C)N1
inactive: dose: 100.0 mg/kg/injection, schedule: Q04DX003 (ip), vehicle: saline 107 % of control | dose: 200.0 mg/kg/injection, schedule: Q04DX003 (ip), vehicle: saline 100 % of control

CCOc1nc(SCC)ncc1C
inactive: dose: 100.0 mg/kg/injection, schedule: Q01DX009 (ip), vehicle: water 107 % of control | dose: 100.0 mg/kg/injection, schedule: Q04DX003 (ip), vehicle: water 101 % of control | dose: 200.0 mg/kg/injection, schedule: Q01DX009 (ip), vehicle: water 106 % of control | dose: 200.0 mg/kg/injection, schedule: Q04DX003 (ip), vehicle: water 95 % of control | dose: 400.0 mg/kg/injection, schedule: Q04DX003 (ip), vehicle: water 103 % of control

Cc1nc(N)[nH]c(=O)c1CCCCc1ccccc1
inactive: dose: 50.0 mg/kg/injection, schedule: Q01DX009 (ip), vehicle: Klucel (hydroxypropylcellulose) (HPC) 98 % of control | [13] 102 % of control | [14] 95 % of control

CCCCCCCNC(C)(C)C(SSSC(c1ccc(Cl)cc1)C(C)(C)NCCCCCCC)c1ccc(Cl)cc1 (stereo not given)
inactive: [5] 101 % of control | [6] 101 % of control | [7] 98 % of control

CN(C)CCCNc1cc2c3ccccc3ncc2c2ccccc12
inactive: [2] 98 % of control | [9] 108 % of control | [3] 93 % of control | [10] 113 % of control | [4] 108 % of control | [11] 101 % of control

CC1(C)CCCC(OC(=O)c2ccc([N+](=O)[O-])cc2)C1 (stereo not given)
inactive: [15] 93 % of control | [16] 96 % of control | [17] 102 % of control

CCCCCCCCCCCCCCCCC
inactive: [12] 113 % of control | dose: 200.0 mg/kg/injection, schedule: Q01DX001 (ip), vehicle: saline with Tween-80 108 % of control | dose: 400.0 mg/kg/injection, schedule: Q01DX001 (ip), vehicle: saline with Tween-80 97 % of control

CC(CO)(CO)N1C(=O)c2cccc3cc([N+](=O)[O-])cc(c23)C1=O
inactive: [13] 112 % of control | [14] 107 % of control

Cc1ccc(S(=O)(=O)OC2C(C3CSC(=O)O3)OC3OC(C)(C)OC32)cc1 (stereo not given)
inactive: dose: 25.0 mg/kg/injection, schedule: Q04DX002 (ip), vehicle: Klucel (hydroxypropylcellulose) (HPC) 103 % of control | dose: 50.0 mg/kg/injection, schedule: Q04DX002 (ip), vehicle: Klucel (hydroxypropylcellulose) (HPC) 100 % of control | [8] 97 % of control

O=CNC1(CO)CCCCC1
inactive: dose: 75.0 mg/kg/injection, schedule: Q01DX001 (ip), vehicle: saline 105 % of control | dose: 150.0 mg/kg/injection, schedule: Q01DX001 (ip), vehicle: saline 102 % of control | dose: 300.0 mg/kg/injection, schedule: Q01DX001 (ip), vehicle: saline 96 % of control

CCc1c(Nc2ccccc2C)nc(N)[nH]c1=O
inactive: [18] 100 % of control | [19] 104 % of control

O=C(Nc1ccc(Cl)c(Cl)c1)Nc1c(Oc2ccc(Cl)c(Cl)c2)ccc(Cl)c1S(=O)(=O)O
inactive: dose: 6.25 mg/kg/injection, schedule: Q01DX009 (ip), vehicle: saline 94 % of control | dose: 12.5 mg/kg/injection, schedule: Q01DX009 (ip), vehicle: saline 93 % of control | dose: 25.0 mg/kg/injection, schedule: Q01DX009 (ip), vehicle: saline 96 % of control

Cc1ccc([N+](=O)[O-])cc1NC(=O)COc1ccc(Cl)cc1Cl
inactive: [13] 96 % of control | [5] 95 % of control | [14] 91 % of control | [6] 102 % of control | dose: 400.0 mg/kg/injection, schedule: Q01DX009 (ip), vehicle: Klucel (hydroxypropylcellulose) (HPC) 94 % of control | [7] 91 % of control

O=C(O)c1[nH]c(=O)[nH]c(=O)c1CN1CCCCC1
inactive: [18] 93 % of control | [19] 93 % of control

BrC12CC3CC(C1)CC(Br)(C3)C2
inactive: dose: 50.0 mg/kg/injection, schedule: Q01DX001 (ip), vehicle: carboxymethylcellulose (CMC) 96 % of control | [15] 93 % of control | [16] 93 % of control | [17] 102 % of control

Oc1ccc(-c2ccccc2)cc1Br
inactive: [9] 101 % of control | [10] 111 % of control
